Source: US9555032B2, “Methods for treatment and prevention of tauopathies and amyloid beta amyloidosis by modulating CRF receptor signaling” (Research Development Foundation, priority 2007, dated 2017)
Entries after “also recorded” stand apart in the source; their conditions may differ.

Key:
[1] = Gerhlert et al., 2007; cited from earlier work
[2] = Gerhlert et al., 2007; cited from earlier work; remark: listed apart in the source
[3] = tested on: tau phosphorylation (tau-P) at the AT8 and PHF-1 sites; experiment: Acute restraint stress-induced tau phosphorylation, Western blot of hippocampal extracts, CRF-R1 antagonist pretreatment; type: in vivo, mouse
Method: Acute restraint stress involved placing mice in ventilated 50 ml conical tubes for 30 min; repeated stress involved 14 consecutive daily exposures. Animals were killed at various intervals ranging from 20 min to 24 hr after stress. Control mice were handled comparably, but were not otherwise manipulated.
The small molecule, CRF-R1-selective antagonist, antalarmin (Webster et al., 1996), was administered at 20 mg/kg by intraperitoneal (ip) injection 20 min before stress exposure. All animals were handled twice daily for 28 d prior to experimentation, and received daily mock ip injections to minimize stress of injection at testing. […]
After sedation, the animals were decapitated and the hippocampus was rapidly dissected and frozen on dry ice. […] Protein concentrations were determined using a BCA Protein Assay Kit (Pierce Biotechnology, Rockford, Ill.). […] Primary antibodies were detected with either anti-mouse or rabbit horseradish peroxidase-linked secondary antibodies (1:1000 Calbiochem, San Diego, Calif.) and developed with an enhanced chemiluminescence Western blot detection kit (Supersignal West Pico, Pierce Biotechnology). Background subtraction was performed and quantitative band intensity readings were obtained using NIH Image software. […]

[4] = tested on: PS/APP mouse AD model (amyloid plaques); experiment: Amyloid plaque density in PS/APP transgenic mouse AD model with or without chronic variable stress; type: in vivo; conditions: antalarmin 40 mg/kg/d ip; for density of plaques in cortex and hippocampus: sacrificed end of fifth month
Text: The PS/APP mouse line was originally purchased from another research laboratory. These mice express the Swedish familial AD mutation of human amyloid precursor protein (APP) (APPK670N,M671L; line Tg2576) and the familial AD mutation of presenilin-1 (PSEN1-dE9) (Jankowsky et al., 2001). Hemizygous double mutant PS/APP offspring and non-transgenic mice were used in experimentation, as it has been reported that homozygote lines of Tg2576 cannot be generated (McGowan et al., 1999). Genotypes were determined by PCR analysis of ear or tail DNA.
For acute stress experiments, CRFR1-selective small molecule antagonist, antalarmin (Webster et al., 1996), was administered at 20 mg/kg by intraperitoneal (ip) injection 20 min before stress exposure. All animals were handled twice daily for at least 14d prior to experimentation, and receive daily mock ip injections to minimize stress of injection at testing. Antalarmin was solubilized in equal volumes of absolute ethanol and Cremaphor EL (Sigma-Aldrich, St. Louis, Mo.), as described (Webster et al., 1996; Pernar et al., 2004). This stock solution was diluted in prewarmed (50° C.) distilled water and adjusted to a final concentration of 4 mg/ml immediately prior to injection. For chronic administration, antalarmin was administered twice daily via ip injection (Wong et al., 1999).
CVS involved daily exposure to either two brief or one sustained stressor over 15d. Brief stressors included elevated plus maze exposure (30 min), shaker stress (30 min on an orbital shaker at 100 rpm), ip hypertonic saline injection (0.4 ml of 1.5M saline), restraint (30 min), tail suspension (10 min) and forced swimming (10 min in RT water). […]
There was no evidence of tau pathology (tangle formation), nor was it expected to develop in animals at this early stage of disease progression. […] While it remains to be determined whether this effect will maintain in older animals, and whether drug and/or stress exposure will affect tau pathology, the results provide an additional endorsement for considering CRFR1 as a therapeutic target in AD.

[5] = tested on: hippocampal tau-P (PHF-1 immunoreactivity); experiment: Intracerebroventricular CRF injection, PHF-1 immunohistochemistry of hippocampus; type: in vivo, mouse; conditions: 0.5 μg CRF icv, 40 min after administration
Text: CRF-R1−/− (U.S. Pat. No. 6,147,275) and CRF-R2−/− (U.S. Pat. No. 6,353,152) mice, along with age-matched wt controls (n=3/group), were anesthetized with isoflurane, and implanted stereotaxically with 26-ga guide cannulae (Plastics One, Wallingford, Conn.) aimed to terminate above the lateral ventricle. Cannulae were affixed to the skull with dental acrylic adhering to jeweler's screws partially driven into the skull, and sealed externally with stylets. After 7 d recovery, stylets were replaced with 33-ga injection cannulae, and 2 hr later the animals were remotely injected with 0.5 μg synthetic mouse/human CRF in […] saline, or vehicle alone, over ˜1 min. To approximate the time frame used in acute stress experiments, animals were killed 40 min after icy injection and perfused for immunohistochemistry, as above. CRF was generously provided by Dr. J. Rivier (Salk Institute).
Mice were perfused with 4% paraformaldehyde, as previously described (Bittencourt and Sawchenko, 2000). 30 μm-thick frozen sections were cut on a sliding microtome and stored at −20° C. in cryoprotectant solution (20% glycerol and 30% ethylene glycol in 0.1 M phosphate buffer) until use. Free-floating sections containing the hippocampus were used to detect tau-P with PHF-1 (1:500) in mouse tissues using Mouse-on-Mouse Immunodetection Kit reagents (Vector, Burlingame, Calif.) to avoid detection of endogenous mouse immunoglobulin. Endogenous peroxidase was quenched with 0.3% hydrogen peroxide, followed by 1% sodium borohydride to reduce free aldehydes. Reaction product was developed using a nickel-enhanced glucose oxidase method (Shu et al., 1988).
To determine whether CRF is capable of independently eliciting hippocampal tau-P, wt and CRF-R-deficient mice were implanted with lateral ventricular cannulae for icy injection. Resultant PHF-1 immunoreactivity was examined 40 min after administration of CRF (0.5 μg in 5 μl) or vehicle (FIG. 4B). […] In contrast to stress effects, however, no labeling of pyramidal neurons or their processes was observed after icy CRF injections.

[6] = tested on: interstitial fluid levels of Aβ; conditions: central CRF administration; APP transgenic mice; Kang et al., 2007; cited from earlier work

CCC(CC)c1cc(C)nn2c(-c3sc(N4CCOCC4)nc3Cl)c(C)nc12 [MTIP, 3-(4-Chloro-2-Morpholin-4-yl-Thiazol-5-yl)-8-(1-Ethylpropyl)-2,6-Dimethyl-Imidazo[1,2b]Pyridazine]
solubility [1]: favorable solubility | ability to cross the BBB [2]: has the ability to cross the BBB

CCCCN(CC)c1nc(C)nc2c1c(C)c(C)n2-c1c(C)cc(C)cc1C [antalarmin]
stress-induced increments in tau phosphorylation at the AT8 and PHF-1 sites ([3]; antalarmin 20 mg/kg ip 20 min before 30 min acute restraint, hippocampal extracts 20 min post-stress): prevented stress-induced increments in phosphorylation at both sites; also recorded: blocked the stress-induced increment | basal levels of tau-P at the AT8 or PHF-1 sites ([3]; antalarmin 20 mg/kg ip, unstressed mice, hippocampal extracts, relative to untreated controls): Neither antalarmin nor the vehicle used for its administration significantly altered basal levels of tau-P; also recorded: did not affect basal levels of phosphorylation | density of plaques (change by antagonist treatment) ([4]; both stressed and unstressed PS/APP mice, cerebral cortex): significantly reduced | density of plaques in cortex and hippocampus ([4]; stressed (CVS) PS/APP mice): 2.49 /mm^2 | density of plaques in cortex and hippocampus ([4]; unstressed PS/APP mice): 1.15 /mm^2

CRF: synthetic mouse/human corticotropin-releasing factor peptide, injected icv (SEEPPISLDLTFHLLREVLEMARAEQLAQQAHSNRKLMEII)
hippocampal tau-P (PHF-1 labeling) after icv CRF ([5]; CRF-R1-/- mice): comparable to the low level seen in saline-injected controls | hippocampal tau-P (PHF-1 immunoreactivity) after icv CRF ([5]; CRF-R2-/- mice): robust increases in hippocampal tau-P | hippocampal tau-P (PHF-1 immunoreactivity) after icv CRF ([5]; wt mice): robust increases in hippocampal tau-P | interstitial fluid levels of Aβ [6]: can increase interstitial fluid levels of Aβ
